From patent publication US9763445B2, “Safened herbicidal compositions comprising a pyridine carboxylic acid herbicide” (Dow AgroSciences, LLC, priority 2014, dated 2017)

Assays:
wild pansy (VIOTR) = assay: Postemergence greenhouse trial, % visual injury on wild pansy; format: in vivo, Viola tricolor; settings: VIOTR, applied alone
Experimental: (§1) Seeds of the desired test plant species were planted in Sun Gro MetroMix® 306 planting mixture, which typically has a pH of 6.0 to 6.8 and an organic matter content of about 30 percent, in plastic pots with a surface area of 103.2 square centimeters (cm^2). When required to ensure good germination and healthy plants, a fungicide treatment and/or other chemical or physical treatment was applied. The plants were grown for 7-36 days (d) in a greenhouse with an approximate 14-hour (h) photoperiod which was maintained at about 23° C. during the day and 22° C. during the night. Nutrients and water were added on a regular basis and supplemental lighting was provided with overhead metal halide 1000-Watt lamps as necessary. The plants were employed for testing when they reached the second or third true leaf stage.
(§2) Weighed amounts of technical material were dissolved in a volume of 97:3 volume per volume (v/v) acetone/dimethyl sulfoxide (DMSO) to stock solutions. […] The concentrated stock solutions were diluted with an aqueous mixture of 1.5% v/v of Agri-dex crop oil concentrate to provide the appropriate application rates. Compound requirements are based upon a 12 milliliter (mL) application volume at a rate of 187 liters per hectare (L/ha). Stocks solutions of the safeners were prepared following the same procedure. Spray solutions of the safeners and experimental compound mixtures were prepared by adding the stock solutions to the appropriate amount of dilution solution to form a 12 mL spray solution in two-way combinations. Formulated compounds were applied to the plant material with an overhead Mandel track sprayer equipped with 8002E nozzles calibrated to deliver 187 L/ha over an application area of 0.503 square meters (m^2) at a spray height of 18 inches (43 centimeters (cm)) above average plant canopy. Control plants were sprayed in the same manner with the solvent blank. All herbicide application (component a) rates are in g ae/ha and all safener (component b) rates are in g ai/ha.
(§3) The treated plants and control plants were placed in a greenhouse as described above and watered by sub-irrigation to prevent wash-off of the test compounds. After 20-22 d, the condition of the test plants as compared with that of the control plants was determined visually and scored on a scale of 0 to 100 percent where 0 corresponds to no injury and 100 corresponds to complete kill. Colby's equation was used to determine the herbicidal effects expected from the mixtures. […]

kochia (KCHSC) = assay: Postemergence greenhouse trial, % visual injury on kochia; format: in vivo, Kochia scoparia; settings: Bassia scoparia, post-emergence, KCHSC, applied alone, read-out: % visual injury, Ob
Experimental: as §1, §2, §3

common poppy (PAPRH) = assay: Postemergence greenhouse trial, % visual injury on common poppy; format: in vivo, Papaver rhoeas; settings: Papaver rhoeas, post-emergence, PAPRH, applied alone, read-out: % visual injury, Ob
Experimental: as §1, §2, §3

wild mustard (SINAR) = assay: Postemergence greenhouse trial, % visual injury on wild mustard; format: in vivo, Sinapis arvensis; settings: Brassica, post-emergence, SINAR, applied alone, read-out: % visual injury, Ob
Experimental: as §1, §2, §3

winter rape (BRSNW) = assay: Postemergence greenhouse trial, % visual injury on winter rape; format: in vivo, Brassica napus; settings: Brassica napus, post-emergence, BRSNW, applied alone, read-out: % visual injury, Ob
Experimental: as §1, §2
(§4) The treated plants and control plants were placed in a greenhouse as described above and watered by sub-irrigation to prevent wash-off of the test compounds. After 20-22 d, the condition of the test plants as compared with that of the control plants was determined visually and scored on a scale of 0 to 100 percent where 0 corresponds to no injury and 100 corresponds to complete kill. The condition of the test plants was compared with that of the control plants as determined visually and scored on a scale of 0 to 100 percent, where 0 corresponds to no injury and 100 corresponds to complete kill. Colby's equation was used to determine the herbicidal effects expected from the mixtures.
(§5) The safener cloquintocet-mexyl was combined with compound 1, compound 2, compound 4, compound 5, and compound 6, and applied to corn/maize (ZEAMX) and spring wheat (TRZAS) and the phytotoxicity of the herbicidal compositions was measured. In addition, the efficacy of the herbicidal composition on velvetleaf (ABUTH, Abutilon theophrasti), pigweed (AMARE, Amaranthus retroflexus), winter rape (BRSNW, Brassica napus), lambsquarters (CHEAL, Chenopodium album), thistle (CIRAR, Cirsium arvense), nutsedge (CYPES, Cyperus esculentus), poinsettia (EPHHL, Euphorbia heterophylla), wild buckwheat (POLCO, Polygonum convolvulus), giant foxtail (SETFA, Setaria faberi), and chickweed (STEME, Stellaria media) was evaluated. […]

pigweed (AMARE) = assay: Postemergence greenhouse trial, % visual injury on pigweed; format: in vivo, Amaranthus retroflexus; settings: Amaranthus retroflexus, post-emergence, AMARE, applied alone, read-out: % visual injury, Ob
Experimental: as §1, §2, §4, §5
The safener cloquintocet-acid and a number of agriculturally acceptable esters and salts (-mexyl, -dimethylammonium salt and -triethylammonium salt) were combined in varying ratios with compound 1 and applied to spring wheat (TRZAS), winter wheat (TRZAW), and spring barley (HORVS), and the phytotoxicity of the herbicidal compositions was measured. […]

## Nc1c(F)c(-c2ccc3cc[nH]c3c2)nc(C(=O)O)c1Cl [compound 16]
Wild pansy (VIOTR); 4.375 g/ha
  % visual injury, Ob: 10%
Wild pansy (VIOTR); 8.75 g/ha
  % visual injury, Ob: 10%
Wild pansy (VIOTR); 17.5 g/ha
  % visual injury, Ob: 20%
Wild pansy (VIOTR); 35 g/ha
  % visual injury, Ob: 30%
Wild pansy (VIOTR); 70 g/ha
  % visual injury, Ob: 40%
Kochia (KCHSC); 4.375 g/ha
  pest or weed control at 4.375 g/ha: 60%
Kochia (KCHSC); 8.75 g/ha
  pest or weed control at 8.75 g/ha: 70%
Kochia (KCHSC); 17.5 g/ha
  pest or weed control at 17.5 g/ha: 85%
Kochia (KCHSC); 35 g/ha
  pest or weed control at 35 g/ha: 90%
Kochia (KCHSC); 70 g/ha
  pest or weed control at 70 g/ha: 90%
Common poppy (PAPRH); 4.375 g/ha
  pest or weed control at 4.375 g/ha: 70%
Common poppy (PAPRH); 8.75 g/ha
  pest or weed control at 8.75 g/ha: 70%
Common poppy (PAPRH); 17.5 g/ha
  pest or weed control at 17.5 g/ha: 100%
Common poppy (PAPRH); 35 g/ha
  pest or weed control at 35 g/ha: 100%
Common poppy (PAPRH); 70 g/ha
  pest or weed control at 70 g/ha: 100%
Wild mustard (SINAR); 4.375 g/ha
  pest or weed control at 4.375 g/ha: 90%
Wild mustard (SINAR); 8.75 g/ha
  pest or weed control at 8.75 g/ha: 93%
Wild mustard (SINAR); 17.5 g/ha
  pest or weed control at 17.5 g/ha: 95%
Wild mustard (SINAR); 35 g/ha
  pest or weed control at 35 g/ha: 100%
Wild mustard (SINAR); 70 g/ha
  pest or weed control at 70 g/ha: 100%
Winter rape (BRSNW); 4.375 g/ha
  plant injury at 4.375 g/ha: 30%
Winter rape (BRSNW); 8.75 g/ha
  plant injury at 8.75 g/ha: 40%
Winter rape (BRSNW); 17.5 g/ha
  plant injury at 17.5 g/ha: 65%
Winter rape (BRSNW); 35 g/ha
  plant injury at 35 g/ha: 70%
Winter rape (BRSNW); 70 g/ha
  plant injury at 70 g/ha: 90%
Pigweed (AMARE); 4.375 g/ha
  pest or weed control at 4.375 g/ha: 70%
Pigweed (AMARE); 8.75 g/ha
  pest or weed control at 8.75 g/ha: 80%
Pigweed (AMARE); 17.5 g/ha
  pest or weed control at 17.5 g/ha: 85%
Pigweed (AMARE); 35 g/ha
  pest or weed control at 35 g/ha: 100%
Pigweed (AMARE); 70 g/ha
  pest or weed control at 70 g/ha: 100%
